Reference: patent US6818620B2, “Synthetic compounds and compositions with enhanced cell binding” (The Regents of the University of California, priority 1991, dated 2004)
“Also recorded” adds a separate entry of the source. One block for each substance: values may come before it. No end group written: not given here.

How the values were obtained:
[1] = tested on: fibroblast cells from 19-week fetal human dermis; assay: Binding of fibroblast cells to collagen- or peptide-coated glass coverslips and dishes (Example 1); format: cell-based; conditions: for Concentration of Cells (Relative Binding of Cells After 15 Minutes): coverslips coated with 50 μl of 1 mg/ml solution, approximately 100,000 fibroblast cells
Protocol: All media and supplies for tissue culture were obtained from University of California San Francisco Tissue Culture Facility. Cycloheximide was purchased from Sigma Biochemicals, St. Louis, Mo. Rat tail tendon collagen was purified to homogeneity and characterized in our laboratory using published methods. Tissue culture dishes (35 mm diameter, Falcon Plastics) were coated with collagen dissolved in 0.01 N acetic acid to a concentration of 10 μg/ml. The dishes were allowed to air dry overnight under ultraviolet light to maintain sterility. Primary cultures of fibroblast cells from 19-week fetal human dermis were obtained. The cultures were maintained in Eagles minimum essential medium with Earle's salts supplemented with 10% fetal bovine serum. All cells used were in the second passage and were obtained from confluent cultures. Prior to release and dispersion with trypsin, the cells were rinsed three times with phosphate buffered saline. The cell layers were exposed for two minutes to 0.05% trypsin, 0.02% NaEDTA in phosphate buffered saline, and rinsed with serum free medium. Glass coverslips (12-15) were washed in a cleaning solution overnight then rinsed with large amounts of distilled water. The coverslips were then sterilized by drying between sheets of filter paper in an oven at high temperature. The coverslips were then placed in small culture dishes under sterile conditions. A solution of collagen in acetic acid (1 mg/ml) was prepared. Fifty microliters of solution was placed on each of four coverslips, which were then dried in air overnight. A solution of the peptide in acetic acid (1 mg/ml) was prepared. Four coverslips were treated with 50 μl of the solution and then dried as described above. Approximately 100,000 fibroblast cells were pipetted onto four control coverslips and dishes, four collagen coated coverslips and dishes, and four peptide coated coverslips and dishes. After 15 minutes, excess medium containing floating cells was removed from each dish. Fresh medium was added and the dishes were examined under a microscope to determine the extent of binding of cells to the respective coverslips. If the number of bound cells appeared to be different, an assay for DNA in the cells attached to each coverslip was performed. The cells were counted using a hemocytometer.

cells [2] = assay: Relative cell-binding activity of synthetic peptides (relative to the SEQ ID NO:1 peptide / P-15, or to collagen); format: cell-based; conditions: for Relative Cell-Binding Activity: relative to the inventive peptide illustrated in Examples 1 and 2 (SEQ ID NO:1)
Protocol: Several more synthetic peptides were prepared and tested for cell binding activity (relative to the SEQ ID NO:1 peptide) all of which have the β-bend feature and which have excellent cell binding activity.
The relative efficiencies of some synthetic peptides of this invention for cell-binding activity (relative to the inventive peptide illustrated in Examples 1 and 2) are set out in Table 4.

[3] = tested on: binding of cells to collagen; assay: Inhibition of cell binding (attachment) to collagen substrates by peptides added to the medium (Example 2); format: cell-based, human; conditions: for % Inhibition of Cell Attachment / % of Maximal Cell Attachment: collagen substrates; for effect on the binding of cells to collagen (in words): equimolar concentrations of several peptides
Protocol: All media and supplies for tissue culture were obtained from University of California San Francisco Tissue Culture Facility. Cycloheximide was purchased from Sigma Biochemicals, St. Louis, Mo. Rat tail tendon collagen was purified to homogeneity and characterized in our laboratory using published methods. Tissue culture dishes (35 mm diameter, Falcon Plastics) were coated with collagen dissolved in 0.01 N acetic acid to a concentration of 10 μg/ml. The dishes were allowed to air dry overnight under ultraviolet light to maintain sterility.
Primary cultures of fibroblast cells from 19-week fetal human dermis were obtained. The cultures were maintained in Eagles minimum essential medium with Earle's salts supplemented with 10% fetal bovine serum. All cells used were in the second passage and were obtained from confluent cultures. Prior to release and dispersion with trypsin, the cells were rinsed three times with phosphate buffered saline. The cell layers were exposed for two minutes to 0.05% trypsin, 0.02% NaEDTA in phosphate buffered saline, and rinsed with serum free medium.
Collagen related, but non-inventive peptides, (Pro-Pro-Gly)10 and (Pro-Hyp-Gly)10 (wherein Hyp is hydroxy-proline), were obtained from Peninsula Laboratory, Belmont, Calif. Polyproline was purchased from Sigma Biochemicals, St. Louis, Mo. Dynorphin 1-13 and human preangiotensinogen 1-14 were purchased from Bachem, Torrance, Calif. Three different fibronectin related peptide sequences were also obtained from Bachem and were used without further analysis.
The inventive peptide (SEQ ID NO:1) was synthesized as described in Example 1 and the same procedures and conditions of Example 1 were used herein.
In this experiment to examine the effect of various additives on binding, the additives were added in the medium containing the cells before being transferred to the dishes for the binding assay. It was observed that cell binding to collagen proceeds rapidly in the beginning of the experiment but then slows down after approximately 30 minutes and approximately 70-80% of the cell binding in the absence of a peptide occurs during this time. The effect of the peptide inhibitor on the initial rate of the binding reaction between cells and collagen was examined. The effects of various conditions on cell binding to collagen after 30 minutes were usually compounded.
All peptides used had small inhibitory effects on cell binding, although none reached the level of inhibition observed with the inventive peptide. […] Under the conditions of these experiments, polyproline and (PPG)10 exist as single chains in polyproline conformation whereas (P-Hyp-G)10 is a triple helix. The behavior of dynorphin 1-13 and preangio-tensinogen 1-14, peptides similar in size to the inventive peptide, on cell binding was also examined.

fibroblast cells = assay: Fibroblast growth and migration into agarose gel containing peptide (Example 3); format: cell-based; conditions: 100 μg peptide in agarose gel (2 mg/ml); 100,000-200,000 fibroblast cells; 72 hours after plating
Protocol: Referring to FIGS. 1 and 2, a prior art agarose gel was prepared with an agarose concentration of 2 mg/ml and between 100,000-200,000 fibroblast cells were placed on the gel surface. The agarose gel had been prepared with a suitable fibroblast cell growth medium and the cells placed on the agarose gel were treated with growth medium; however, the cells died within 48 hours, as is illustrated by the FIG. 1 photograph. […] The fibroblast population continued to grow rapidly until cells filled the lattice of the gel.
Different concentrations of the inventive peptides in hydrogels were studied. […] Different types of cells appear to prefer different inventive peptide concentrations in hydrogels, probably due to differences in receptor densities, but in general about 100 μg/ml will be effective.

[4] = tested on: peripheral blood CD4 and CD8 lymphocytes; assay: Inhibition of T-cell binding to collagen-coated dishes (Example 7); format: cell-based; conditions: rat tail type I collagen-coated dishes, serum free medium
Protocol: Cultured T-cells were incubated in collagen-coated dishes in serum free medium, in the presence and absence of inventive peptides. […] Inhibition was examined at several concentrations and times. Maximal inhibition by the peptides occurred at 30 minutes at 37 ? C at a concentration of 35 μM. Thus, the molecular site on type I collagen involved in the interaction with T-cells appears to be the same as involved in fibroblast binding.

dermal fibroblasts = assay: Induction of metalloproteinases and osteodifferentiation in dermal fibroblasts; format: cell-based
Source text: This activity is useful for resolving fibrosis. […] This is confirmed by the induction of the following genes: type I collagen, collagenase, alkaline phosphatase, osteonectin, transforming growth factor β (TGF-β), and osteogenin (bone morphogenic protein, […]). These studies confirm that the inventive peptides mimic the biological activity of collagen by binding to specific receptors and inducing biochemical processes characteristic of those induced by collagen itself.

cells [5] = assay: Relative cell-binding activity of synthetic peptides (relative to the SEQ ID NO:1 peptide / P-15, or to collagen); format: cell-based

Substance: Collagen: Rat tail tendon collagen purified to homogeneity [reference compound]
Concentration of Cells (Relative Binding of Cells After 15 Minutes) ([1]; 15 minutes): 8.59

Substance: FGIAGF [SEQ ID NO:5]
cell binding activity compared with P-15 region / SEQ ID NO:1 peptide (in words) (cells [2]): cell binding activity comparable to that of the peptides of SEQ ID NO: 1, 2, and 3 | Relative Cell-Binding Activity (cells [2]): 87

Substance: QGIAGQR [SEQ ID NO:4]
Relative Cell-Binding Activity (cells [2]): 60

Substance: QGAIAQ [SEQ ID NO:7]
Relative Cell-Binding Activity (cells [2]): 70

Substance: human preangiotensinogen 1-14 (DRVYIHPFHLVIHN)
% Inhibition of Cell Attachment ([3]; peptide 35 × 10^−6M): 12% | % of Maximal Cell Attachment ([3]; peptide 35 × 10^−6M): 88% | effect on the binding of cells to collagen (in words) [3]: did not affect the binding of cells to collagen to the extent shown by the inventive peptide

osteodifferentiation (induction of type I collagen, collagenase, alkaline phosphatase, osteonectin, TGF-β, BMP-7 genes) (dermal fibroblasts; in composites with hydroxyapatite, non-osteoblastic (dermal) fibroblasts): causes osteodifferentiation
Substance: GTPGPQGIAGQRGVV [SEQ ID NO:1]
increase in cell binding over collagen-coated dishes ([1]; 15 minutes): 40% | increase in cell binding over the control (no collagen or peptide) dishes ([1]; 15 minutes): 60% | Concentration of Cells (Relative Binding of Cells After 15 Minutes) ([1]; 15 minutes): 11.05 | potency relative to collagen in binding cells to glass or to polystyrene ([1]; various other similar studies): at least twice as potent as collagen | % Inhibition of Cell Attachment ([3]; peptide 7.2 × 10^−6M): 85% | % of Maximal Cell Attachment ([3]; peptide 7.2 × 10^−6M): 15% | % Inhibition of Cell Attachment ([3]; peptide 36 × 10^−6M): 88% | % of Maximal Cell Attachment ([3]; peptide 36 × 10^−6M): 12% | effect on the binding of cells to collagen (in words) [3]: potent inhibitor of the binding of cells to collagen | fibroblast growth and migration into agarose gel (fibroblast cells): the cells not only grew, but actually migrated into the gel itself | inhibition of interactions between T-cells and collagen [4]: markedly inhibited | induction of metalloproteinases (dermal fibroblasts; dermal fibroblasts): induces metalloproteinases

Substance: Gly-Ile-Ala-Gly (FGIAGF; OTHER INFORMATION: synthetic peptide) [SEQ ID NO:9]
cell binding enhancement with respect to collagen (in words) (cells [5]): not significantly enhanced with respect to collagen

Substance: Polyproline
% Inhibition of Cell Attachment ([3]; peptide 1.7 × 10^−6M): 10% | % of Maximal Cell Attachment ([3]; peptide 1.7 × 10^−6M): 90% | effect on the binding of cells to collagen (in words) [3]: did not significantly affect the binding of cells

Substance: Dynorphin 1-13 (YGGFLRRIRPKLK)
% Inhibition of Cell Attachment ([3]; peptide 35 × 10^−6M): 19% | % of Maximal Cell Attachment ([3]; peptide 35 × 10^−6M): 81% | effect on the binding of cells to collagen (in words) [3]: did not affect the binding of cells to collagen to the extent shown by the inventive peptide

Substance: QGIAGQ [SEQ ID NO:3]
cell binding activity compared with P-15 region / SEQ ID NO:1 peptide (in words) (cells [2]): as active, or more active, than a peptide having the entire P-15 region | Relative Cell-Binding Activity (cells [2]): 120 | inhibition of interactions between T-cells and collagen [4]: markedly inhibited

Substance: Gly—Ile—Ala—Gly—Gln (GIAGQ; OTHER INFORMATION: synthetic peptide) [SEQ ID NO:6]
cell-binding activity (relative to the SEQ ID NO:1 peptide) (cells [2]): 70% | Relative Cell-Binding Activity (cells [2]): 70

Substance: Gln-Gly-Ile-Ala-Gly (QGIAG; OTHER INFORMATION: synthetic peptide) [SEQ ID NO:8]
cell-binding activity (relative to the SEQ ID NO:1 peptide) (cells [2]): 42% | cell binding enhancement with respect to collagen (in words) (cells [5]): slightly enhanced with respect to collagen, but not significantly enhanced; also recorded: not significantly enhanced with respect to collagen

Substance: GPQGIAGQR [SEQ ID NO:2]
cell binding activity compared with P-15 region / SEQ ID NO:1 peptide (in words) (cells [2]): equally as active as the entire P-15 region | Relative Cell-Binding Activity (cells [2]): 100 | inhibition of interactions between T-cells and collagen [4]: markedly inhibited
